What is called CC50 is the concentration at which the toxic effect on the cells reaches its halfway point. A high value points to lower toxicity to the cells.

The test has as its system HCT116 MTAP-deleted cells. Put plainly: Cell viability assay (CellTiter-Glo, 7 days), HCT116 MTAP-deleted. To be noted: Homo sapiens, HCT-116, 168 h. (In ATP-based viability assays light output follows the ATP content of the culture.)
Description: Control compounds were analyzed in parallel each time for quality control.
In Brief, on Day −1, a serial dilution of stock compounds in DMSO was performed using BioMek liquid handlers and dispensed using Echo acoustic dispenser into 384 well plates. Both tool compounds and sample compounds were spotted in the same plate for a dose response of PRMT5 inhibitors. Compound plates were stored as frozen until the cells were ready for seeding.
On Day 0, 100 HCT WT or HCT116 MTAP-deleted cells were seeded in compound-containing 384 well plates (50 μl per well) in RPMI 1640 media supplemented with 10% heat inactivated fetal bovine serum, Glutamax and penicillin streptomycin using EL460 liquid dispenser 5 μl cassette (BioTek, part no. 7170011). After equilibrating the plate in room temperature, the cells were incubated for 7 days inside the sealed incubator set at 37 °C with 90% humidity and 5% CO2.
On Day 7, the viability of cells was measured using a CTG assay kit (CellTitre-Glo; Promega cat no. G7573). Shortly, 40 μl per well of luminescent cell viability assay reagent were dispensed using EL460 liquid dispenser 5 μl cassette. CTG luminescence signal was measured using an EnVision plate reader (PerkinElmer) in accordance with manufacturer's instruction. The CC50 values for each compound after 7 days of treatment were calculated using 4 parameter non-linear logistical curve fit.
`CC(=O)N(C)N(Cc1nc2ccccc2n1C(F)F)C(=O)c1ccc2nc(N)c3cnn(C)c3c2c1` [Example 431, N′-acetyl-4-amino-N-((1-(difluoromethyl)-1H-benzo[d]imidazol-2-yl)methyl)-N′,1-dimethyl-1H-pyrazolo[4,3-c]quinoline-8-carbohydrazide]: the CC50 was 100 to 1000 nM.

With `[2H]C([2H])([2H])N(C(C)=O)N(Cc1ccc(C(F)(F)F)cc1F)C(=O)c1ccc2nc(N)c3cnn(C)c3c2c1` [Example 269, N′-acetyl-4-amino-N-(2-fluoro-4-(trifluoromethyl)benzyl)-1-methyl-N′-(methyl-d3)-1H-pyrazolo[4,3-c]quinoline-8-carbohydrazide], the CC50 was less than 100 nM.

In turn, `CC(=O)N(C)N(Cc1ccc(-c2cnn(C3(C)CC3)c2)cc1F)C(=O)c1ccc2nc(N)c3cnn(C)c3c2c1` [Example 247, N′-acetyl-4-amino-N-(2-fluoro-4-(1-(1-methylcyclopropyl)-1H-pyrazol-4-yl)benzyl)-N′,1-dimethyl-1H-pyrazolo[4,3-c]quinoline-8-carbohydrazide] gave a CC50 of less than 100 nM.

In the case of `CN(C(=O)C1CC1)N(Cc1cc2cc(C(F)(F)F)ccn2n1)C(=O)c1ccc2nc(N)c3cnn(C)c3c2c1` [Example 404, 4-amino-N′-(cyclopropanecarbonyl)-N′,1-dimethyl-N-((5-(trifluoromethyl)pyrazolo[1,5-a]pyridin-2-yl)methyl)-1H-pyrazolo[4,3-c]quinoline-8-carbohydrazide], the CC50 is less than 100 nM.

`CC(=O)N(C)N(Cc1ccn(-c2ccc(F)cc2)n1)C(=O)c1cc2c(cc1F)nc(N)c1cnn(C)c12` [Example 425, N′-acetyl-4-amino-7-fluoro-N-((1-(4-fluorophenyl)-1H-pyrazol-3-yl)methyl)-N′,1-dimethyl-1H-pyrazolo[4,3-c]quinoline-8-carbohydrazide] had a CC50 of less than 100 nM.

The compound `CC(=O)N(C)N(Cc1c(F)cc(-c2cnn(C(F)F)c2)cc1F)C(=O)c1ccc2nc(N)c3cnn(C)c3c2c1` [Example 379, N′-acetyl-4-amino-N-[[4-[1-(difluoromethyl)pyrazol-4-yl]-2,6-difluoro-phenyl]methyl]-N′,1-dimethyl-pyrazolo[4,3-c]quinoline-8-carbohydrazide] displayed a CC50 of less than 100 nM.

In the case of `CN(C(=O)C1CC1)N(Cc1ccc(-c2cnn(C)c2)cn1)C(=O)c1ccc2nc(N)c3cnn(C)c3c2c1` [Example 356, 4-amino-N′-(cyclopropanecarbonyl)-N′,1-dimethyl-N-((5-(1-methyl-1H-pyrazol-4-yl)pyridin-2-yl)methyl)-1H-pyrazolo[4,3-c]quinoline-8-carbohydrazide], the CC50 was in the range of 100 to 1000 nM.

As to `CC(=O)N(C)N(Cc1c(F)cc(Cl)cc1F)C(=O)c1ccc2nc(N)c3cnn(C)c3c2c1` [Example 367, N′-acetyl-4-amino-N-(4-chloro-2,6-difluorobenzyl)-N′,1-dimethyl-1H-pyrazolo[4,3-c]quinoline-8-carbohydrazide], the CC50 is less than 100 nM.

Regarding `CC(=O)N(C)N(Cc1ccc(-c2ccn(C(F)(F)F)n2)nc1F)C(=O)c1ccc2nc(N)c3cnn(C)c3c2c1` [Example 346, N′-acetyl-4-amino-N-((2-fluoro-6-(1-(trifluoromethyl)-1H-pyrazol-3-yl)pyridin-3-yl)methyl)-N′,1-dimethyl-1H-pyrazolo[4,3-c]quinoline-8-carbohydrazide], the CC50 was less than 100 nM.

Compound `CN(C(=O)C1CC1)N(Cc1ccc(OC(F)F)cn1)C(=O)c1ccc2nc(N)c3cnn(C)c3c2c1` [Example 291, 4-amino-N′-(cyclopropanecarbonyl)-N-((5-(difluoromethoxy)pyridin-2-yl)methyl)-N′,1-dimethyl-1H-pyrazolo[4,3-c]quinoline-8-carbohydrazide] registered a CC50 of less than 100 nM.

In the case of `CC(=O)N(C)N(Cc1ccc(-c2cnn(C(F)(F)F)c2)nc1F)C(=O)c1ccc2nc(N)c3cnn(C)c3c2c1` [Example 347, N′-acetyl-4-amino-N-((2-fluoro-6-(1-(trifluoromethyl)-1H-pyrazol-4-yl)pyridin-3-yl)methyl)-N′,1-dimethyl-1H-pyrazolo[4,3-c]quinoline-8-carbohydrazide], the CC50 was less than 100 nM.

As to `CC(=O)N(C)N(Cc1ccn(-c2ccccc2F)n1)C(=O)c1ccc2nc(N)c3cnn(C)c3c2c1` [Example 436, N′-acetyl-4-amino-N-((1-(2-fluorophenyl)-1H-pyrazol-3-yl)methyl)-N′,1-dimethyl-1H-pyrazolo[4,3-c]quinoline-8-carbohydrazide], the cytotoxic concentration (CC50) is less than 100 nM.

For the compound `CN(C(=O)C1CC1)N(Cc1ccc(-c2ccc(C(F)(F)F)s2)cn1)C(=O)c1ccc2nc(N)c3cnn(C)c3c2c1` [Example 369, 4-amino-N′-(cyclopropanecarbonyl)-N′,1-dimethyl-N-((5-(5-(trifluoromethyl)thiophen-2-yl)pyridin-2-yl)methyl)-1H-pyrazolo[4,3-c]quinoline-8-carbohydrazide], the CC50 is less than 100 nM.

Compound `CC(=O)N(C)N(Cc1ccn(-c2c(F)cccc2F)n1)C(=O)c1ccc2nc(N)c3cnn(C)c3c2c1` [Example 441, N′-acetyl-4-amino-N-((1-(2,6-difluorophenyl)-1H-pyrazol-3-yl)methyl)-N′,1-dimethyl-1H-pyrazolo[4,3-c]quinoline-8-carbohydrazide] displayed a CC50 of less than 100 nM.

In turn, `CC(=O)N(C)N(Cc1cccc2ccoc12)C(=O)c1ccc2nc(N)c3cnn(C)c3c2c1` [Example 273, N′-acetyl-4-amino-N-(benzofuran-7-ylmethyl)-N′,1-dimethyl-1H-pyrazolo[4,3-c]quinoline-8-carbohydrazide] came in with a CC50 of less than 100 nM.

Consider `CN(C(=O)C1CC1)N(Cc1ccc(C(F)(F)F)cn1)C(=O)c1cc2c(cn1)nc(N)c1cnn(C)c12` [Example 422, 4-amino-N′-(cyclopropanecarbonyl)-N′,1-dimethyl-N-((5-(trifluoromethyl)pyridin-2-yl)methyl)-1H-pyrazolo[4,3-c][1,7]naphthyridine-8-carbohydrazide], for which the CC50 was 100 to 1000 nM.

As to `Nc1nc2ccc(C(=O)N(Cc3nc4ccc(Cl)cc4[nH]3)N3CCCC3=O)cc2c2ccccc12` [Example 124, 6-amino-N-((6-chloro-1H-benzo[d]imidazol-2-yl)methyl)-N-(2-oxopyrrolidin-1-yl)phenanthridine-2-carboxamide], the half-maximal cytotoxic concentration (CC50) was in the range of 100 to 1000 nM.

`CC(=O)N(C)N(Cc1ccn(-c2ccc(C(F)(F)F)cc2)n1)C(=O)c1ccc2nc(N)c3cnn(C)c3c2c1` [Example 417, N′-acetyl-4-amino-N′,1-dimethyl-N-((1-(4-(trifluoromethyl)phenyl)-1H-pyrazol-3-yl)methyl)-1H-pyrazolo[4,3-c]quinoline-8-carbohydrazide] showed a cytotoxic concentration (CC50) of less than 100 nM.

`Cc1nc(C(F)(F)F)ccc1CN(C(=O)c1ccc2nc(N)c3cnn(C)c3c2c1)N(C)C(=O)C1CC1` [Example 409, 4-amino-N′-(cyclopropanecarbonyl)-N′,1-dimethyl-N-((2-methyl-6-(trifluoromethyl)pyridin-3-yl)methyl)-1H-pyrazolo[4,3-c]quinoline-8-carbohydrazide] showed a CC50 of less than 100 nM.

Compound `CC(=O)N(C)N(Cc1ccc(C#N)cc1C(F)(F)F)C(=O)c1ccc2nc(N)c3cnn(C)c3c2c1` [Example 407, N′-acetyl-4-amino-N-(4-cyano-2-(trifluoromethyl)benzyl)-N′,1-dimethyl-1H-pyrazolo[4,3-c]quinoline-8-carbohydrazide] displayed a CC50 of 100 to 1000 nM.

For `CC(=O)N(C)N(Cc1cnc(-c2ccccc2)n1C)C(=O)c1ccc2nc(N)c3cnn(C)c3c2c1` [Example 433, N′-acetyl-4-amino-N′,1-dimethyl-N-((1-methyl-2-phenyl-1H-imidazol-5-yl)methyl)-1H-pyrazolo[4,3-c]quinoline-8-carbohydrazide], the CC50 is less than 100 nM.

As for `Cn1ncc2c(N)nc3ccc(C(=O)N(Cc4ccc(C(F)(F)F)cn4)N4CC5(CC5)COC4=O)cc3c21` [Example 319, 4-amino-1-methyl-N-(6-oxo-5-oxa-7-azaspiro[2.5]octan-7-yl)-N-((5-(trifluoromethyl)pyridin-2-yl)methyl)-1H-pyrazolo[4,3-c]quinoline-8-carboxamide], the CC50 is less than 100 nM.

The compound `Cn1ncc2c(N)nc3cc(F)c(C(=O)N(Cc4ccc(C(F)(F)F)cn4)N4CCOC(C(F)(F)F)C4)cc3c21` (stereo not shown) [Example 427, 4-amino-7-fluoro-1-methyl-N-(2-(trifluoromethyl)morpholino)-N-((5-(trifluoromethyl)pyridin-2-yl)methyl)-1H-pyrazolo[4,3-c]quinoline-8-carboxamide] registered a half-maximal cytotoxic concentration (CC50) of less than 100 nM.

`CN(C(=O)C1CC1)N(Cc1ccc(-c2ccsn2)cc1F)C(=O)c1ccc2nc(N)c3cnn(C)c3c2c1` [Example 239, 4-amino-N′-(cyclopropanecarbonyl)-N-(2-fluoro-4-(isothiazol-3-yl)benzyl)-N′,1-dimethyl-1H-pyrazolo[4,3-c]quinoline-8-carbohydrazide]: the CC50 was less than 100 nM.

For `CN(C(=O)C1CC1)N(Cc1ccc(OC(F)F)cn1)C(=O)c1cc2c(cc1F)nc(N)c1cnn(C)c12` [Example 290, 4-amino-N′-(cyclopropanecarbonyl)-N-((5-(difluoromethoxy)pyridin-2-yl)methyl)-7-fluoro-N′,1-dimethyl-1H-pyrazolo[4,3-c]quinoline-8-carbohydrazide], the cytotoxic concentration (CC50) was less than 100 nM.

`CC(=O)N(C)N(Cc1ccc(C#N)cc1OC(F)F)C(=O)c1ccc2nc(N)c3cnn(C)c3c2c1` [Example 408, N′-acetyl-4-amino-N-(4-cyano-2-(difluoromethoxy)benzyl)-N′,1-dimethyl-1H-pyrazolo[4,3-c]quinoline-8-carbohydrazide]: the CC50 was less than 100 nM.

On to `Cn1ncc2c(N)nc3ccc(C(=O)N(Cc4ccc(C(F)(F)F)cn4)N4CCOC5(CC5)C4)cc3c21` [Example 285, 4-amino-1-methyl-N-(4-oxa-7-azaspiro[2.5]octan-7-yl)-N-((5-(trifluoromethyl)pyridin-2-yl)methyl)-1H-pyrazolo[4,3-c]quinoline-8-carboxamide], for which the CC50 was in the range of 100 to 1000 nM.

`CC(=O)N(C)N(Cc1cnn(-c2ccc(C(F)(F)F)cc2)c1)C(=O)c1ccc2nc(N)c3cnn(C)c3c2c1` [Example 430, N′-acetyl-4-amino-N′,1-dimethyl-N-((1-(4-(trifluoromethyl)phenyl)-1H-pyrazol-4-yl)methyl)-1H-pyrazolo[4,3-c]quinoline-8-carbohydrazide] showed a CC50 of 100 to 1000 nM.

For the origin of these results see patent US20240254118A1, “PRMT5 INHIBITORS AND USES THEREOF” (Gilead Sciences, Inc., priority 2022, published 2024).
